# Tested on: ovariectomized (OVX) rat skeleton
# Assay: Continuous combination therapy protocol in OVX rats, pQCT of femur
# Format: in vivo, Sprague-Dawley (S-D) female rats
# Settings: 4 weeks treatment, EP4 agonist 0.3 mg/kg/d by Alzet pump, E2 0.01 mg/kg/d by pellets
# Description: Prostaglandin E2 (PGE2) restores bone mass by stimulating both bone formation and bone resorption but in favor of bone formation in ovariectomized (OVX) rat skeleton. 5-(3-{2S-[3R-Hydroxy-4-(3-trifluoromethyl-phenyl)-butyl}-5-oxo-pyrrolidin-1-yl}-propyl)-thiophene-2-carboxylic acid, an EP4 receptor selective agonist, can mimic PGE2's systemic bone anabolic effects when given by daily subcutaneous injection. However, like PGE2, slow release delivery of 5-(3-{2S-[3R-hydroxy-4-(3-trifluoromethyl-phenyl)-butyl}-5-oxo-pyrrolidin-1-yl}-propyl)-thiophene-2-carboxylic acid, by Alzet pump may cause bone loss by stimulating both bone resorption and bone formation but in favor of bone resorption in OVX rat skeleton. Estrogen (17-βestradiol) inhibits bone resorption and turnover, thus preventing bone loss in OVX rats. […] Sprague-Dawley (S-D) female rats were sham-operated (n=20) or OVX (n=50) at 3.5 months of age. Three and an half months post-surgery, OVX rats were treated with either vehicle, 5-(3-{2S-[3R-hydroxy-4-(3-trifluoromethyl-phenyl)-butyl}-5-oxo-pyrrolidin-1-yl}-propyl)-thiophene-2-carboxylic acid at 0.3 mg/kg/d (by Alzet pumps in subcutaneous area, […] release rate, for duration of 14 days, replace the pumps at day 15), or 17-βestradiol (E2) at 0.01 mg/kg/d (administered by 30 day release pellets), or combined 5-(3-{2S-[3R-hydroxy-4-(3-trifluoromethyl-phenyl)-butyl}-5-oxo-pyrrolidin-1-yl}-propyl)-thiophene-2-carboxylic acid at 0.3 mg/kg/d (by Alzet pumps in subcutaneous area, […] release rate, for duration of 28 days) and 17-βestradiol (E2) at 0.01 mg/kg/d (administered by 30 day release pellets) for 4 weeks. Total mineral density and cortical bone area of distal femoral metaphysis and femoral shaft were determined by peripheral […] computerized tomography (pQCT) as described previously (Ke H. Z. et al., Lasofoxifene protects against the age-related changes in bone mass, bone strength, and total serum cholesterol in intact aged male rats. J. of Bone and Mineral Research, 2001;16:765-773).
SMILES,change in cortical bone area of distal femoral metaphysis compared with OVX controls,change in cortical bone area of femoral shaft compared with OVX controls,change in total mineral density of distal femoral metaphysis compared with OVX controls,change in total mineral density of femoral shaft compared with OVX controls
"C[C@]12CC[C@@H]3c4ccc(O)cc4CC[C@H]3[C@@H]1CC[C@@H]2O [17-βestradiol (E2), 17β-estradiol]",did not cause significant change,no significant change,did not cause significant change,no significant change
O=C(O)c1ccc(CCCN2C(=O)CC[C@@H]2CC[C@@H](O)Cc2cccc(C(F)(F)F)c2)s1 [5-(3-{2S-[3R-Hydroxy-4-(3-trifluoromethyl-phenyl)-butyl]-5-oxo-pyrrolidin-1-yl}-propyl)-thiophene-2-carboxylic acid],−15%,no significant change,−15%,no significant change
